Data: patent publication US5843992A, “Epoxysuccinic acid derivatives” (Nippon Chemiphar Co., Ltd., priority 1995, dated 1998)
Where two headings read alike, the source gives them in different places.

Key:
cathepsin B [1] = molecular target: T1, cathepsin B (Rattus norvegicus, UniProt P00787); experiment: Cathepsin B inhibitory action (lysosome fraction, Z-Arg-Arg-MCA); type: biochemical, rat (Wistar); conditions: pH 6.0, 30° C.; read-out: Cathepsin B Inhibition (IC50)
T1 construct: Preparation of Rat Liver Lysosome Fraction; from tissue; host or cells: rat liver lysosome fraction (male Wistar rat)
Description: Male rat of Wistar strain was killed by exsangulnation and a ice-chilled physiological saline was introduced into portal vein for circulation. Then, its liver was taken out. Thereafter, the following procedures were performed at 4° C.
The liver was minced by scissors. Five grams of minced liver were homogenized in a Potter type Teflon Homogenizer after addition of 0.25M aqueous sucrose solution in a volume as much as nine times. The homogenized mixture was centrifuged for 10 minutes at 800 G. The resulting supernatant was further centrifuged at 12,000 G for 20 minutes. The precipitate was homogenized in 25 mL of 0.25M aqueous sucrose solution, and then centrifuged for 20 minutes at 12,000 G. The resulting precipitate was further homogenized after 100 mL of 0.25M aqueous sucrose solution. Thus, a lysosome fraction was obtained.
To 0.25 mL of a solution (pH: 6.0) containing 352 mM KH2 PO4, 48 mM Na2 HPO4, 5.32 mM EDTA.2 Na and 10 mM L-cysteine were added 0.1 mL of the lysosome fraction, 5 μL of the test compound solution, and 0.545 mL of distilled water. The mixture was preincubated at 30° C. for 15 minutes. Thereafter, the reaction was started by the addition of 0.1 mL of a solution of 50 μM carbobenzoxy-L-arginine-L-arginine-4-methylcoumaryl-7-amide (Z-Arg-Arg-MCA, substrate). The reaction was performed at 30° C. for 20 minutes, and then terminated by addition of 1 mL of an aqueous solution (pH: 4.3) containing 100 mM sodium monochloroacetate, 30 mM sodium acetate and 70 mM acetic acid. The finally obtained solution was subjected to measurement of fluorescence strength (excitation wavelength: 380 nm, emission wavelength: 460 nm).

[2] = tested on: ICR mouse calvaria (bone resorption); experiment: Bone resorption inhibitory activity (PTH-stimulated calcium release from mouse calvaria); type: cell-based; conditions: read-out: Bone Resorption Inhibition, inhibition ratio (%)
Description: From ICR mouse (age: 6 to 7 days), calvaria was taken under aseptic conditions. The calvaria was divided along the median line into two parts after its connective tissue was removed. In a culture medium (modified BGjb medium, containing 5% inactivated bovine fetal serum) in an amount of 1 mL per a pair of bones, a pre-culture was performed for 24 hours under the conditions of 5% CO2 and 37° C. After the pre-culture was complete, each one of bone was placed in 0.5 mL of the same culture medium containing the test compound of different concentration, and cultured for 72 hours in the presence of 3×10^-7 M parathyroid hormone (PTH). For the control, culture was performed in the same manner except for using neither test compound nor PTH.
After the culture was complete, the amount of calcium released in the supernatant of the culture medium in the 72 hour culture as well as the amount of calcium contained in the bone (dissolved in 1 mL of 6N hydrochloric acid) were determined by ortho-cresol phthalein complexon (OCPC) method.
The calcium release ratio (%) was calculated according to the following equation: [formula]
The inhibition ratio (%) of bone resorption by the test compound was calculated according to the following equation: [formula]

cathepsin L = cathepsin L (Rattus norvegicus, UniProt P07154); experiment: Cathepsin L inhibitory action (rat liver lysosome fraction, Z-Phe-Arg-MCA); type: biochemical, rat (Wistar); conditions: pH 5.5, 30° C., in the presence of 10^-7 M CA-074; read-out: Cathepsin L Inhibition IC50
cathepsin B [3] = molecular target: T1, cathepsin B; conditions: 10^-7 M CA-074, pH 5.5, Z-Phe-Arg-MCA; cited from earlier work
[4] = Concentration of Test Comp. 10^-4 M, 72 hours, 3×10^-7 M PTH
[5] = Concentration of Test Comp. 10^-5 M, 72 hours, 3×10^-7 M PTH
[6] = Concentration of Test Comp. 10^-6 M, 72 hours, 3×10^-7 M PTH

T1 sequence (P00787 80-339): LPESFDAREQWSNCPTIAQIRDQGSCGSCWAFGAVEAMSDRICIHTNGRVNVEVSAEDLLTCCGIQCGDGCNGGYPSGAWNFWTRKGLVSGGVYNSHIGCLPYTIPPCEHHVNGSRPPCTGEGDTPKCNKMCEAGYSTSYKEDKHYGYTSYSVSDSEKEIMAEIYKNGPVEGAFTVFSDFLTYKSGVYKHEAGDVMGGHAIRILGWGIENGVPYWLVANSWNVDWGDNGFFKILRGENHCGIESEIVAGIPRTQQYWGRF
Sequence of cathepsin L (P07154 114-334): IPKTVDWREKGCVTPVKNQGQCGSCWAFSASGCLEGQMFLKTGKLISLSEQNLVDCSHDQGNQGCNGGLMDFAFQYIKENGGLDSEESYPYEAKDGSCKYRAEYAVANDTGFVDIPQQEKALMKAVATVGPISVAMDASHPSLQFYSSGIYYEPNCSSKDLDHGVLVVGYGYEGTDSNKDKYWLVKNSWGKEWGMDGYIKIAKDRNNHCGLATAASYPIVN

Compound	IC50 (cathepsin B [1])	inhibition at 1 µM ([2]; 72 h)	inhibition at 10 µM ([2]; 72 h)	inhibition at 100 µM ([2]; 72 h)	IC50 (cathepsin L)	inhibition at 100 µM [2, 4]	inhibition at 10 µM [2, 5]	inhibition at 1 µM [2, 6]	cathepsin B activity inhibition (cathepsin B [3])
O=C(O)[C@H]1O[C@@H]1C(=O)NC(Cc1ccccc1)Cc1ccccc1	200 nM								
O=C(O)[C@H]1O[C@@H]1C(=O)NC(c1ccccc1)c1ccccc1	230 nM	90%	82%	95%	240 nM				
CC(C)CCC(CCC(C)C)NC(=O)[C@H]1O[C@@H]1C(=O)O	310 nM	63%	87%	82%	19 nM				
CC(C)CCNC(=O)[C@H]1O[C@@H]1C(=O)O (relative stereo) [Comparison X, reference compound]					78 nM	66%	40%	25%	
O=C(O)[C@H]1O[C@@H]1C(=O)NCc1ccccc1 (relative stereo) [Comparison Y, reference compound]					350 nM	44%	38%	21%	
CCCNC(=O)[C@H]1O[C@@H]1C(=O)N[C@H](C(=O)N1CCC[C@H]1C(=O)O)[C@@H](C)CC [CA-074]									completely inhibited
